What was measured:
[1] = Measurement of Log P values by HPLC on reversed phase columns (EEC directive 79/831 Annex V.A8); assay type: physicochemical; conditions: method [a]: LC-UV, acidic range, 0.1% formic acid in water and acetonitrile
[2] = test system: Colletotrichum lindemuthianum; experiment: Colletotrichum lindemuthianum in vitro cell test; assay type: cell-based; conditions: 144 h, liquid culture, 6 days incubation, read-out: efficacy (inhibition of fungal growth)
Experimental: B-7. Colletotrichum lindemuthianum In Vitro Cell Test • Solvent: DMSO • Culture medium: 14.6 g anhydrous D-glucose (VWR), 7.1 g Mycological Peptone (Oxoid), 1.4 g granulated Yeast Extract (Merck), QSP 1 liter • Inoculum: spores suspension Fungicides were solubilized in DMSO and the solution used to prepare the required range of concentrations. […] A spore suspension of C. lindemuthianum was prepared and diluted to the desired spore density. Fungicides were evaluated for their ability to inhibit spores germination and mycelium growth in liquid culture assay. The compounds were added in the desired concentration to the culture medium with spores. After 6 days incubation, fungi-toxicity of compounds was determined by spectrometric measurement of mycelium growth. Inhibition of fungal growth was determined by comparing the absorbance values in wells containing the fungicides with the absorbance in control wells without fungicides.

[3] = test system: Botrytis cinerea; experiment: Botrytis cinerea in vitro cell test; assay type: cell-based; conditions: 144 h, 50 μMol/l of active ingredient, liquid culture, 6 days incubation, read-out: efficacy (inhibition of fungal growth)
Experimental: B-9. Botrytis cinerea In Vitro Cell Test • Solvent: DMSO • Culture medium: 1 g KH2PO4 (VWR), 1 g K2HPO4 (VWR), 0.5 g Urea (VWR), 3 g KNO3 (Prolabo), 10 g saccharose (VWR), 0.5 g MgSO4, 7H2O (Sigma), 0.07 g CaCl2, 2H2O (Prolabo), 0.2 mg MnSO4, H2O (Sigma), 0.6 mg CuSO4, 5H2O (Sigma), 7.9 mg ZnSO4, 7H2O (Sigma), 0.1 mg H3BO3 (Merck), 0.14 mg NaMoO4, 2H2O (Sigma), 2 mg thiamine (Sigma), 0.1 mg biotine (VWR), 4 mg FeSO4, 7H2O (Sigma), QSP 1 liter • Inoculum: spore suspension Fungicides were solubilized in DMSO and the solution used to prepare the required range of concentrations. […] A spore suspension of B. cinerea was prepared and diluted to the desired spore density. Fungicides were evaluated for their ability to inhibit spore germination and mycelium growth in liquid culture assay. The compounds were added in the desired concentration to the culture medium with spores. After 6 days incubation, fungi-toxicity of compounds was determined by spectrometric measurement of mycelium growth. Inhibition of fungal growth was determined by comparing the absorbance values in wells containing the fungicides with the absorbance in control wells without fungicides.

[4] = Table 1, compounds of formula (I)
[5] = Table 3, intermediates of formula (27)

SMILES | chromatographic logP [1, 4] | other results
FC(F)(F)Oc1cccc(Sc2nnc(Cl)cc2C2=NOC[C@H](Cc3ccc(Cl)cc3Cl)N2)c1 (racemic) [Compound I-019] | 4.99 | –
FC(F)(F)Oc1cccc(Sc2cnc(Cl)cc2C2=NOC[C@H](Cc3ccc(Cl)cc3Cl)N2)c1 (racemic) [Compound I-020] | 5.13 | inhibition at 20 ppm ([2]; 20 ppm of active ingredient): 90 to 100%
Cc1cc([C@H]2CON=C(c3c(Sc4cccc5ccccc45)nnc(C)c3C)N2)c(C)s1 (racemic) [Compound I-037] | 3.67 | –
Cc1cc([C@@H]2CON=C(c3c(Sc4ccc(Cl)cc4Cl)nnc(C)c3C)N2)c(C)s1 (racemic) [Compound I-039] | 3.87 | –
Cc1cc([C@H]2CON=C(c3c(Sc4ccncc4)nnc(C)c3C)N2)c(C)s1 (racemic) [Compound I-041] | 1.58 | –
Cc1ccc(C)c(Sc2nnc(C)c(C)c2C2=NOC[C@H](c3ccc(C)s3)N2)c1 (racemic) [Compound I-043] | 3.28 | –
CCOc1cccc(Sc2nnc(C)c(C)c2C2=NOC[C@@H](c3cc(C)sc3C)N2)c1 (racemic) [Compound I-046] | 3.44 | inhibition at 50 µM ([2]; 50 μMol/l of active ingredient): 80 to 89%
Cc1cc([C@@H]2CON=C(c3c(Sc4ccc(F)cc4F)nnc(C)c3C)N2)c(C)s1 (racemic) [Compound I-051] | 3.32 | –
Cc1ccc(Sc2nnc3ccccc3c2C2=NOC[C@H](c3ccc(C)s3)N2)c(C)c1 (racemic) [Compound I-052] | 3.83 | –
Cc1ccc([C@H]2CON=C(c3c(Sc4cc(Cl)ccc4Cl)nnc(C)c3C)N2)s1 (racemic) [Compound I-053] | 3.4 | –
COc1ccc(Sc2nnc(C)c(C)c2C2=NOC[C@@H](c3ccc(C)s3)N2)cc1 (racemic) [Compound I-054] | 2.76 | –
Cc1ccc(C)c(Sc2nnc(C)c(C)c2C2=NOC[C@H](c3cc(C)sc3C)N2)c1 (racemic) [Compound I-057] | 3.66 | –
Cc1ccc([C@H]2CON=C(c3c(Sc4ccc(Cl)cc4Cl)nnc4ccccc34)N2)s1 (racemic) [Compound I-058] | 3.96 | –
Cc1cc([C@H]2CON=C(c3c(Sc4cc(Cl)cc(Cl)c4)nnc(C)c3C)N2)c(C)s1 (racemic) [Compound I-061] | 4.04 | inhibition at 50 µM [3]: 70 to 79%
Cc1ccc([C@@H]2CON=C(c3c(Sc4ccc(F)cc4)nnc(C)c3C)N2)s1 (racemic) [Compound I-063] | 2.82 | inhibition at 50 µM [3]: 70 to 79%
Cc1ccc([C@H]2CON=C(c3c(Sc4ccc(Cl)cc4)nnc(C)c3C)N2)s1 (racemic) [Compound I-064] | 3.14 | –
Cc1ccc([C@@H]2CON=C(c3c(Sc4ccc(C(C)(C)C)cc4)nnc(C)c3C)N2)s1 (racemic) [Compound I-065] | 3.95 | –
Cc1ccc([C@H]2CON=C(c3c(Sc4ccc(Cl)cc4)nnc4ccccc34)N2)s1 (racemic) [Compound I-070] | 3.62 | –
Cc1ccc([C@H]2CON=C(c3c(Sc4ccncc4)nnc(C)c3C)N2)s1 (racemic) [Compound I-072] | 1.3 | –
Cc1ccc([C@@H]2CON=C(c3c(Sc4ccc(F)cc4F)nnc(C)c3C)N2)s1 (racemic) [Compound I-073] | 2.95 | inhibition at 50 µM [3]: 80 to 89%
Cc1ccc([C@@H]2CON=C(c3c(Sc4ccc(Cl)cc4Cl)nnc(C)c3C)N2)s1 (racemic) [Compound I-075] | 3.45 | –
Cc1cc([C@@H]2CON=C(c3c(Sc4ccc(C(F)(F)F)cc4)nnc(C)c3C)N2)c(C)s1 (racemic) [Compound I-076] | 3.71 | –
COc1ccc(Sc2nnc3ccccc3c2C2=NOC[C@H](c3ccc(C)s3)N2)cc1 (racemic) [Compound I-077] | 3.22 | –
Cc1cc([C@@H]2CON=C(c3c(Sc4ccc(F)cc4)nnc(C)c3C)N2)c(C)s1 (racemic) [Compound I-081] | 3.18 | –
Cc1ccc([C@@H]2CON=C(c3c(Sc4ccc(C)c(Cl)c4)nnc(C)c3C)N2)s1 (racemic) [Compound I-082] | 3.47 | inhibition at 50 µM [3]: 90 to 100%
Cc1ccc(Sc2nnc(C)c(C)c2C2=NOC[C@@H](c3cc(C)sc3C)N2)c(C)c1 (racemic) [Compound I-087] | 3.68 | inhibition at 50 µM [3]: 70 to 79%

SMILES | chromatographic logP [1, 4] | other results
Cc1ccc([C@H]2CON=C(c3c(Sc4cccc5ccccc45)nnc(C)c3C)N2)s1 (racemic) [Compound I-092] | 3.3 | –
Cc1ccc([C@H]2CON=C(c3c(Sc4ccc(C)c(C)c4)nnc(C)c3C)N2)s1 (racemic) [Compound I-093] | 3.26 | inhibition at 50 µM [3]: 90 to 100%
Cc1ccc(Sc2nnc(C)c(C)c2C2=NOC[C@@H](c3ccc(C)s3)N2)cc1 (racemic) [Compound I-094] | 3.01 | –
Cc1ccc([C@H]2CON=C(c3c(Sc4cc(Cl)ccc4Cl)nnc4ccccc34)N2)s1 (racemic) [Compound I-096] | 3.88 | –
Cc1ccc([C@H]2CON=C(c3c(Sc4ccc5ccccc5c4)nnc4ccccc34)N2)s1 (racemic) [Compound I-098] | 3.81 | –
Cc1ccc(Sc2nnc3ccccc3c2C2=NOC[C@H](c3ccc(C)s3)N2)cc1 (racemic) [Compound I-101] | 3.49 | –
Cc1ccc([C@H]2CON=C(c3c(Sc4ccccn4)nnc(C)c3C)N2)s1 (racemic) [Compound I-105] | 2.03 | –
Cc1cc([C@H]2CON=C(c3c(Sc4ccc(Cl)c(Cl)c4)nnc(C)c3C)N2)c(C)s1 (racemic) [Compound I-107] | 3.92 | inhibition at 50 µM [3]: 80 to 89%
Cc1ccc([C@H]2CON=C(c3c(Sc4ccc(OC(F)(F)F)cc4)nnc4ccccc34)N2)s1 (racemic) [Compound I-112] | 3.96 | inhibition at 50 µM [3]: 70 to 79%
Cc1ccc([C@H]2CON=C(c3c(Sc4ccc(C(C)(C)C)cc4)nnc4ccccc34)N2)s1 (racemic) [Compound I-113] | 4.43 | –
Cc1ccc([C@H]2CON=C(c3c(Sc4ccccc4Cl)nnc(C)c3C)N2)s1 (racemic) [Compound I-114] | 2.93 | inhibition at 50 µM [3]: 90 to 100%
Cc1ccc([C@H]2CON=C(c3c(Sc4cc(Cl)cc(Cl)c4)nnc(C)c3C)N2)s1 (racemic) [Compound I-115] | 3.68 | inhibition at 50 µM [3]: 90 to 100%
Cc1ccc([C@@H]2CON=C(c3c(Sc4ccc(OC(F)(F)F)cc4)nnc(C)c3C)N2)s1 (racemic) [Compound I-116] | 3.52 | –
Cc1cc([C@@H]2CON=C(c3c(Sc4ccc(OC(F)(F)F)cc4)nnc(C)c3C)N2)c(C)s1 (racemic) [Compound I-119] | 3.87 | inhibition at 50 µM [3]: 70 to 79%
Cc1ccc([C@H]2CON=C(c3c(Sc4cc(Cl)cc(Cl)c4)nnc4ccccc34)N2)s1 (racemic) [Compound I-120] | 4.18 | –
Cc1ccc(C)c(Sc2nnc3ccccc3c2C2=NOC[C@H](c3ccc(C)s3)N2)c1 (racemic) [Compound I-123] | 3.8 | –
Cc1ccc([C@@H]2CON=C(c3c(Sc4ccc(C(F)(F)F)cc4)nnc(C)c3C)N2)s1 (racemic) [Compound I-128] | 3.36 | –
Cc1ccc([C@H]2CON=C(c3c(Sc4ccc(C(F)(F)F)cc4)nnc4ccccc34)N2)s1 (racemic) [Compound I-130] | 3.81 | inhibition at 50 µM [3]: 70 to 79%
Cc1cc([C@@H]2CON=C(c3c(Sc4ccc(C(C)(C)C)cc4)nnc(C)c3C)N2)c(C)s1 (racemic) [Compound I-132] | 4.32 | –
Cc1cc([C@H]2CON=C(c3c(Sc4ccc(Cl)cc4)nnc(C)c3C)N2)c(C)s1 (racemic) [Compound I-134] | 3.49 | –
Cc1ccc([C@H]2CON=C(c3c(Sc4ccc(Cl)c(Cl)c4)nnc(C)c3C)N2)s1 (racemic) [Compound I-137] | 3.55 | inhibition at 50 µM [3]: 90 to 100%
Cc1ccc([C@@H]2CON=C(c3c(Sc4ccc5ccccc5c4)nnc(C)c3C)N2)s1 (racemic) [Compound I-138] | 3.33 | –
C=CCON=C(N)c1c(Br)nnc(C)c1C [Compound 27-01] | – | chromatographic logP [1, 5]: 1.28
C=CCON=C(N)c1c(Br)nnc2ccccc12 [Compound 27-02] | – | chromatographic logP [1, 5]: 1.81
NC(=NO)c1c(Br)nnc2ccccc12 [Compound 29-02] | – | chromatographic logP ([1]; Table 4, intermediates of formula (29)): 0.31
